Measurements reported in patent US7592365B2, “Substituted pyrroles, compositions containing same, method for making same and use thereof” (Aventis Pharma S.A., priority 2005, dated 2009).

Tests used:
[1] = target: T1, human FAK (Homo sapiens, UniProt Q05397); assay: FAK autophosphorylation inhibition, time-resolved fluorescence test (HTRF); format: biochemical; settings: 15 μM ATP, 1 hour at 37° C.; read-out: FAK IC 50
T1 construct: The complete human FAK cDNA, whose N-terminal end was labelled with histidine, was cloned into a baculovirus expression vector pFastBac HTc; made in house
T1 sequence (Q05397 whole entry): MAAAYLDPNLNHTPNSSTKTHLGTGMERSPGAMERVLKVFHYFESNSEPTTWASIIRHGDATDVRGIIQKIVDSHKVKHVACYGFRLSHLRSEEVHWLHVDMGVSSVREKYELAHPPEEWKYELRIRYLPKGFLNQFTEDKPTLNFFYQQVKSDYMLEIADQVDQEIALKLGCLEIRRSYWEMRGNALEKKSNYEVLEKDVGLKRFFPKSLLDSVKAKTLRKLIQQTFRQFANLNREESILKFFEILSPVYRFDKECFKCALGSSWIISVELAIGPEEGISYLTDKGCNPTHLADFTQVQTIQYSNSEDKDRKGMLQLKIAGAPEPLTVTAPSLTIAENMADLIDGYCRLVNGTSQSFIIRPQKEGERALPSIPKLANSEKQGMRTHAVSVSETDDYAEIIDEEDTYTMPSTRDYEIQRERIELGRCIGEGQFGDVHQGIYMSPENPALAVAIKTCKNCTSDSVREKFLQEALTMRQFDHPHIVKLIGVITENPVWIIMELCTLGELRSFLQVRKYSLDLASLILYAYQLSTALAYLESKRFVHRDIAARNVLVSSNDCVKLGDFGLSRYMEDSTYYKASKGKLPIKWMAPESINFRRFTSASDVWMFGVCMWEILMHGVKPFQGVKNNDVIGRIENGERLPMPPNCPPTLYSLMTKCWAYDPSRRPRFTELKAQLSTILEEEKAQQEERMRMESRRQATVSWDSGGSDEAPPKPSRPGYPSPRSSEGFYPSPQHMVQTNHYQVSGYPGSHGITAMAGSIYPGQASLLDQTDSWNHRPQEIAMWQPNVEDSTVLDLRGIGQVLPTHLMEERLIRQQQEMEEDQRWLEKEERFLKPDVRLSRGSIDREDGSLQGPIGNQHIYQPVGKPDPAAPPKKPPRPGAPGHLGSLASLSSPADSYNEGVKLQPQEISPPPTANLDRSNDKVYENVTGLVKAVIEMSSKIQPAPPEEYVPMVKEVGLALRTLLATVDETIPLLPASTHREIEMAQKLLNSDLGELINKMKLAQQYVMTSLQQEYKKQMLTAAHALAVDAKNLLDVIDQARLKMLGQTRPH
Experimental: The inhibitory activity of the compounds on FAK is determined by a measurement of the inhibition of the autophosphorylation of the enzyme using a time-resolved fluorescence test (HTRF).
The complete human FAK cDNA, whose N-terminal end was labelled with histidine, was cloned into a baculovirus expression vector pFastBac HTc. The protein was expressed and purified at about 70% homogeneity.
The kinase activity is determined by incubating the enzyme (6.6 μg/ml) with various concentrations of test compound in a 50 mM Hepes buffer, pH=7.2, containing 10 mM MgCl2, 100 μM Na3VO4, 15 μM ATP for 1 hour at 37° C. The enzymatic reaction is stopped by adding Hepes buffer, pH=7.0, containing 0.4 mM KF, 133 mM EDTA, 0.1% BSA and the labelling is carried out, for 1 to 2 hours at room temperature, by adding to this buffer an anti-histidine antibody labelled with XL665 and a monoclonal antibody phospho-specific for tyrosine, conjugated with europium cryptate (Eu-K). The characteristics of the two fluorophores are available in G. Mathis et al., Anticancer Research, 1997, 17, pages 3011-3014. The energy transfer between the excited europium cryptate to the acceptor XL665 is proportional to the degree of autophosphorylation of FAK. The signal of long duration specific for XL-665 is measured in a Packard Discovery plate counter. All the assays are performed in duplicate and the mean of the two assays is calculated. The inhibition of the FAK autophosphorylation activity with compounds of the invention is expressed as a percentage inhibition relative to a control whose activity is measured in the absence of test compound. For the calculation of the % inhibition, the [signal at 665 nm/signal at 620 nm] ratio is considered.

[2] = target: T2, human KDR enzyme (cytoplasmic domain, GST fusion) (Homo sapiens, UniProt P35968); assay: Phosphorylation of substrate by the KDR enzyme in vitro, scintillation technique; format: biochemical; settings: 2 μM cold ATP, PLCγ SH2-SH3 substrate, 1 hour at 37° C.; read-out: KDR IC 50
T2 construct: The cytoplasmic domain of the human KDR enzyme was cloned in a GST fusion form; GST; made in house; host or cells: SF21 insect cells (baculovirus)
T2 sequence (P35968 786-1356 limits assumed): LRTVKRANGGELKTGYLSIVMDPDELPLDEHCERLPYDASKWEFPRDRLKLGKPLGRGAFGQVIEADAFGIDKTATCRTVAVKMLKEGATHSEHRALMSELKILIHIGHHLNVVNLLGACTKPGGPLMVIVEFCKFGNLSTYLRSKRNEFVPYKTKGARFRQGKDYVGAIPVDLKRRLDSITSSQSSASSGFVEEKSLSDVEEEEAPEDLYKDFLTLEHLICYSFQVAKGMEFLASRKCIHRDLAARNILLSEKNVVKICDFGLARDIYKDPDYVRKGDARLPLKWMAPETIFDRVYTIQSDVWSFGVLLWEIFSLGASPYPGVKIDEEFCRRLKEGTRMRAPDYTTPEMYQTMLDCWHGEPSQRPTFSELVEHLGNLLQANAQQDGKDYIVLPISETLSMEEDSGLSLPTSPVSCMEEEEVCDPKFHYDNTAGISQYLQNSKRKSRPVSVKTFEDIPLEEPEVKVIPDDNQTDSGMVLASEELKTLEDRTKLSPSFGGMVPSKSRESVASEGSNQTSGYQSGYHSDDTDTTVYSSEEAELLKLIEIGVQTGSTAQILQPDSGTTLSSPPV
Experimental: The inhibitory effect of the compounds is determined in a test of phosphorylation of substrate by the KDR enzyme in vitro by a scintillation technique (96-well plate, NEN).
The cytoplasmic domain of the human KDR enzyme was cloned in a GST fusion form into the baculovirus expression vector pFastBac. The protein was expressed in SF21 cells and purified to about 60% homogeneity.
The kinase activity of KDR is measured in 20 mM MOPS, 10 mM MgCl2, 10 mM MnCl2, 1 mM DTT, 2.5 mM EGTA, 10 mM b-glycerophosphate, pH=7.2, in the presence of 10 mM MgCl2, 100 μM Na3VO4, 1 mM NaF. 10 μl of the compound are added to 70 μl of kinase buffer containing 100 ng of KDR enzyme at 4° C. The reaction is initiated by adding 20 μl of solution containing 2 μg of substrate (SH2—SH3 fragment of PLCγ expressed in the form of a GST fusion protein), 2 μCi γ ^33P[ATP] and 2 μM cold ATP. After incubating for 1 hour at 37° C., the reaction is stopped by adding 1 volume (100 μl) of 200 mM EDTA. The incubation buffer is removed and the wells are washed three times with 300 μl of PBS. The radioactivity is measured in each well using a Top Count NXT (Packard) radioactivity counter.
The background noise is determined by measuring the radioactivity in four different wells containing radioactive ATP and the substrate alone.
A control for total activity is measured in four different wells all containing the reagents (γ^33P-[ATP], KDR and PLCγ substrate) but in the absence of compound.
The inhibition of the KDR activity with the compound of the invention is expressed as percentage inhibition of the control activity determined in the absence of compound.
The compound SU5614 (Calbiochem) (1 μM) is included in each plate as control for inhibition.

[3] = target: T3, human Tie2 (intracellular domain 776-1124, GST fusion) (Homo sapiens, UniProt Q02763); assay: Phosphorylation of PLC by Tie2 (GST-Tie2), FlashPlate radioactivity test; format: biochemical; settings: 2 μM cold ATP, GST-PLC substrate, 1 hour at 37° C.; read-out: TEI2 IC 50
T3 construct: the amino acids of the intracellular domain 776-1124; made in house
T3 sequence (Q02763 776-1124): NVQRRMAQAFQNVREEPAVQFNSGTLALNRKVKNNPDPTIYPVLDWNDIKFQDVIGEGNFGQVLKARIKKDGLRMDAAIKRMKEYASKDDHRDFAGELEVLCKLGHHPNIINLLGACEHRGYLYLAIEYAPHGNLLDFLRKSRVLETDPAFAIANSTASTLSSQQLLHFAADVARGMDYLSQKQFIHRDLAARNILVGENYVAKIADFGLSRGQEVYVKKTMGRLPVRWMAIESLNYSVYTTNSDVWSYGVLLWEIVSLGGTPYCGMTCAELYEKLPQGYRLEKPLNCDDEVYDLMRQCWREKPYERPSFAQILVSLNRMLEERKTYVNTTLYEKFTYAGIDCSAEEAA
Experimental: The coding sequence for human Tie2 corresponding to the amino acids of the intracellular domain 776-1124 was generated by PCR using the cDNA isolated from human placenta as model. This sequence was introduced into a baculovirus expression vector pFastBacGT in the form of a GST fusion protein.
The inhibitory effect of the molecules is determined in a test of phosphorylation of PLC by Tie2 in the presence of GST-Tie2 purified to about 80% homogeneity. The substrate is composed of the SH2—SH3 fragments of PLC expressed in the form of the GST fusion protein.
The kinase activity of Tie2 is measured in a 20 mM MOPS buffer, pH 7.2, containing 10 mM MgCl2, 10 mM MnCl2, 1 mM DTT, 10 mM glycero-phosphate. A reaction mixture composed of 70 μl of kinase buffer containing 100 ng of GST-Tie2 enzyme per well is deposited in a FlashPlate 96-well plate kept on ice. 10 μl of the test molecule diluted in DMSO to a concentration of 10% maximum are then added. For a given concentration, each measurement is carried out in quadruplicate. The reaction is initiated by adding 20 μl of solution containing 2 μg of GST-PLC, 2 μM of cold ATP and 1 μCi of d′^33P[ATP]. After incubating for 1 hour at 37° C., the reaction is stopped by adding 1 volume (100 μl) of EDTA at 200 mM. After removing the incubation buffer, the wells are washed three times with 300 μl of PBS. The radioactivity is measured on a Wallac MicroBeta1450.
The inhibition of the Tie2 activity is calculated and expressed as a percentage inhibition relative to the control activity determined in the absence of compound.

In the case of `NC(=O)c1c[nH]cc1-c1ccc(NC(=O)Nc2cc(C(F)(F)F)ccc2F)cc1` [Example 1, 4-{4-[3-(2-Fluoro-5-trifluoromethylphenyl)ureido]phenyl}-1H-pyrrole-3-carboxamide], the IC50 [1] is reported as 2060 nM, the IC50 [2] is reported as 6470 nM and the IC50 [3] is reported as 69 nM.

For `CCCC(=O)Nc1[nH]cc(-c2ccc(NC(=O)Nc3cc(C(F)(F)F)ccc3F)cc2)c1C(N)=O` [Example 5, 2-Butyrylamino-4-{4-[3-(2-fluoro-5-trifluoromethylphenyl)ureido]phenyl}-1H-pyrrole-3-carboxamide], the IC50 [1] was 266 nM, the IC50 [2] was 42 nM and the IC50 [3] was 11 nM.

`CC(=O)Nc1[nH]cc(-c2ccc(NC(=O)Nc3ccc(C)c(C)c3)cc2)c1C(N)=O` [Example 19, 2-Acetylamino-4-{4-[3-(3,4-dimethylphenyl)ureido]phenyl}-1H-pyrrole-3-carboxamide] gave an IC50 [1] of 717 nM, an IC50 [2] of 13 nM and an IC50 [3] of 125 nM.

`CC(=O)Nc1[nH]cc(-c2ccc(NC(=O)Nc3ccc(OC(F)(F)F)cc3)cc2)c1C(N)=O` [Example 21, 2-Acetylamino-4-{4-[3-(4-trifluoromethoxyphenyl)ureido]phenyl}-1H-pyrrole-3-carboxamide] gave an IC50 [1] of 163 nM, an IC50 [2] of 19 nM and an IC50 [3] of 118 nM.

In the case of `CC(=O)Nc1[nH]cc(-c2ccc(NC(=O)Nc3ccc(C)c(C(F)(F)F)c3)cc2)c1C(N)=O` [Example 40, 2-Acetylamino-4-{4-[3-(4-methyl-3-trifluoromethylphenyl)ureido]phenyl}-1H-pyrrole-3-carboxamide], the melting point is reported as 266 °C.
